Reference: patent US20210198284A1, “GOLD COMPOSITIONS AND METHODS OF USE THEREOF” (THE UNIVERSITY OF MASSACHUSETTS, priority 2018, published 2021)

How the values were obtained:
Format in all cases: cell-based
A. baumannii NCTC 13420 = assay: Antibacterial assay, MIC/MBC by broth microdilution (CLSI); settings: A. baumannii NCTC 13420; for MIC: repeated twice, a/b = both values
In short: (§1)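 CLSI broth microdilution in cation-adjusted Mueller Hinton broth, log-phase inoculum diluted to 7.5×10^5 CFU/mL before 1:1 mixing with two-fold compound dilutions, triplicates, 18 h at 37 °C static. MIC: >90% inhibition by OD600; MBC: lowest concentration giving no colonies after 5 μL spotted on agar, 18 h, 37 °C.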

E. faecalis ATCC 700221 = assay: as above; settings: for MIC: repeated twice, a/b = both values
In short: as §1

[1] = tested on: K. pneumoniae ATCC 700603; assay: as above; settings: K. pneumoniae ATCC 700603; repeated twice, a/b = both values
In short: as §1

E. coli ATCC 25922 = assay: as above; settings: for MIC: repeated twice, a/b = both values
In short: as §1

S. aureus JE2 (USA300) = assay: as above; settings: S. aureus JE2 (USA300); for MIC: repeated twice, a/b = both values
In short: as §1

E. cloacae NCTC 13405 = assay: as above; settings: E. cloacae NCTC 13405; for MIC: repeated twice, a/b = both values
In short: as §1

P. aeruginosa NCTC 13437 = assay: as above; settings: P. aeruginosa NCTC 13437; for MIC: repeated twice, a/b = both values
In short: as §1

A549 cells = assay: Cytotoxicity assay (resazurin); settings: 20 h, mean±S.E.M. from two independent experiments
Experimental: Sample preparation. The compounds were dissolved in DMSO at 12.8 mg/mL as the stock solutions, except for compounds 9-17, which were directly dissolved in the culture medium at 12.8 mg/mL. The stock solutions were diluted by the culture medium to the testing concentration at 128 μg/mL (compound 9-17 were diluted to 1,280 μg/mL). The solutions were then serially diluted two fold in a 96-well plate and were used in the cytotoxicity assay immediately.
Cell culture and cytotoxicity assay. A549 cells (ATCC CCL-185) were cultured in high glucose DMEM (Sigma-Aldrich, D6429) supplemented with 10% FBS, 1% penicillin-streptomycin solution (Sigma-Aldrich, P4333), 1% gentamicin solution (Sigma-Aldrich, G1272) and 1% amphotericin B solution (Sigma-Aldrich, A2942) at 37° C. in a humidified atmosphere containing 5% CO2. After cells reached 80%˜90% confluency, they were detached and counted using an Invitrogen Countess automated cell counter. Cells with viability over 90% were seeded at a density of 5×10^3 cells per well in 96-well cell culture plates. After overnight culture, the culture medium in each well removed with a pipet. 80 μL of the compound solutions from each well of the 96-well plate prepared above were transferred to this 96-well plate containing the cells, and the plates were incubated for 20 h. After addition of 8 μL of 110 μg/mL resazurin, the plates were incubated for further 3 h at 37° C. in 5% CO2. The fluorescence intensity was measured using a Tecan M200 Infinite Pro microplate reader at excitation 560 nm, emission 590 nm. IC50 were calculated by curve fitting the inhibition values vs. log(concentration) using GraphPad's Prism. The cytotoxicity assays (in triplicate) were repeated twice using freshly prepared cells and compound solutions.

[2] = tested on: C. neoformans ATCC 208821; assay: Antifungal MIC; settings: C. neoformans ATCC 208821
C. albicans ATCC 90028 = assay: Antifungal MIC

## CC[P+](CC)(CC)[Au-][S][C@@H]1O[C@H](COC(C)=O)[C@@H](O[C@@H]2O[C@H](COC(C)=O)[C@H](OC(C)=O)[C@H](OC(C)=O)[C@H]2OC(C)=O)[C@H](OC(C)=O)[C@H]1OC(C)=O [Compound 6, [2,3,4,6-Tetra-O-acetyl-β-D-galactopyranosyl (1→4)-2,3,6-tri-O-acetyl-1-thio-β-D-glucopyranosato](triethylphosphine) gold(I)]
A. baumannii NCTC 13420
  MBC (in brackets): 132 μM/mL
  MIC: 66 μM/mL
E. faecalis ATCC 700221
  MBC (in brackets): 0.3 μM/mL
  MIC: 0.1 μM/mL
[1]
  MIC: >265 μM/mL
E. coli ATCC 25922
  MBC (in brackets): 33 (33) μM/mL
  MIC: 33 (33) μM/mL
S. aureus JE2 (USA300)
  MBC (in brackets): (0.1) μM/mL
  MIC: 0.03 μM/mL
E. cloacae NCTC 13405
  MBC (in brackets): 265 (265) μM/mL
  MIC: 265 (265) μM/mL
P. aeruginosa NCTC 13437
  MBC (in brackets): 132 (132) μM/mL
  MIC: 132 (132) μM/mL
A549 cells
  IC50 against A549 cells: 29.8 ± 3.2 µg/mL
[2]
  MIC: >32 µg/mL
C. albicans ATCC 90028
  MIC: >32 µg/mL

## CC[P+](CC)(CC)[Au-][S][C@@H]1O[C@H](COC(C)=O)[C@@H](OC(C)=O)[C@H](OC(C)=O)[C@H]1NC(=O)C(Cl)(Cl)Cl [Compound 4, (3,4,6-Tri-O-acetyl-2-N-trichloroactyl-1-thio-β-D-glucopyranosato) (triethylphosphine) gold (I)]
A. baumannii NCTC 13420
  MBC (in brackets): 164 μM/mL
  MIC: 82 μM/mL
E. faecalis ATCC 700221
  MBC (in brackets): (0.2) μM/mL
  MIC: 0.08 μM/mL
[1]
  MIC: >328 μM/mL
E. coli ATCC 25922
  MBC (in brackets): 21 (21) μM/mL
  MIC: 21 (21) μM/mL
S. aureus JE2 (USA300)
  MBC (in brackets): (0.01) μM/mL
  MIC: 0.01 μM/mL
E. cloacae NCTC 13405
  MIC: >328 μM/mL
P. aeruginosa NCTC 13437
  MIC: >328 μM/mL
A549 cells
  IC50 against A549 cells: 7.9 ± 0.1 µg/mL
[2]
  MIC: >32 µg/mL
C. albicans ATCC 90028
  MIC: >32 µg/mL
